The values that follow come from patent publication US20200131156A1, “ARYLSULFONYLPYROLECARBOXAMIDE DERIVATIVES AS Kv3 POTASSIUM CHANNEL ACTIVATORS” (H. Lundbeck A/S, priority 2018, published 2020).

Where only a bound is given, the exact number is not on record here.

In general, EC50 refers to the concentration at which the effect is half-maximal. A higher EC50 goes with a less potent agent. As usually defined, the IC50 is the concentration needed to halve the response being measured. The low end stands for greater potency, the high end for weaker potency.

The target of one test is hNav1.1 (Homo sapiens, UniProt P35498). The test can be described thus: Off-target Nav1.1 electrophysiology (Qpatch), multiple state readouts. It counts as cell-based. The settings on record: resting, use-dependent and inactivated state readouts, up to 30 μM; for EC50: activation; for IC50: inhibition. The protocol: The activity of selected compound examples at three key ion channel off targets was measured, namely Nav1.1, Kv1.1/1.2 and Kv7.2/7.3.
The voltage gated sodium channel, Nav1.1, is known to have state-dependent pharmacology, therefore, compound examples were tested for effects on inhibition or activation at the resting state channel, a use-dependent readout, and an inactivated state readout by electrophysiology, at concentrations up to 30 μM.
In general terms: The patch-clamp technique gives a direct electrical read-out from membranes.

Another test has as its target T1, human Kv3.3 (Homo sapiens, UniProt Q14003).
T1 construct: expressed in transfected cells
T1 sequence (Q14003 1-757): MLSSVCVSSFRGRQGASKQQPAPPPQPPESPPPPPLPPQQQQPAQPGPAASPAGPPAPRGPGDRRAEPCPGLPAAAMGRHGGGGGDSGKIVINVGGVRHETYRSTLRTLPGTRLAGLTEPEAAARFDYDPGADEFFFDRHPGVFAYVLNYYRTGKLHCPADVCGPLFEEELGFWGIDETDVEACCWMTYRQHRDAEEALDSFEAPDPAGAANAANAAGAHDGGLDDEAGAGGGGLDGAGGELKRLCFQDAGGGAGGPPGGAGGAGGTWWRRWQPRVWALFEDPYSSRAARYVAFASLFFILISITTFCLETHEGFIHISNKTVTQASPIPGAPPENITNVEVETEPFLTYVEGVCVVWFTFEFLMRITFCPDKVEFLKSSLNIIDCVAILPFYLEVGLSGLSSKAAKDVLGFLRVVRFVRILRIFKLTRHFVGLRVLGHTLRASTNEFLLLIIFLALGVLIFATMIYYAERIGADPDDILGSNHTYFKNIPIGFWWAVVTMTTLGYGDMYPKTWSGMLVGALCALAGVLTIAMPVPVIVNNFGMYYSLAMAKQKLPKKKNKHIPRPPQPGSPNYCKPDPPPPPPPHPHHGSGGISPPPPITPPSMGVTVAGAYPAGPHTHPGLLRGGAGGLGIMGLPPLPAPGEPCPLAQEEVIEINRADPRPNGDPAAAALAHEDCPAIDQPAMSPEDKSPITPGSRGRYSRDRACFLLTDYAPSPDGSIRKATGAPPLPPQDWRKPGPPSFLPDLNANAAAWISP
The test can be described thus: Manual patch clamp electrophysiology, HEK-293 cells stably expressing human Kv3.3. It counts as cell-based. The settings on record: for hKv3.3 ECΔ30% increase: concentration increasing current by 30% at the −10 mV step; for hKv3.3 ECΔ5 mV: concentration that shifts activation threshold by 5 mV. The protocol: Manual Patch Clamp Electrophysiological Evaluation, hKv3.1, hKv3.2, hKv3.3, hKv3.4:
HEK-293 cells stably expressing human Kv3.1b, Kv3.2, Kv3.3 or Kv3.4 were used for the experiments.
Kv3.1b, Kv3.2: Cells were cultured in MEM medium supplemented with 10% Fetal Bovine Serum, 1% Penicillin/Streptomycin, 2 mM glutamine and 0.6 mg/mL geneticin. Cells were grown to 80-90% confluency at 37° C. and 5% CO2 Kv3.3 or Kv3.4: Cells were cultured in DMEM medium supplemented with 10% Fetal Bovine Serum, 500 ug/mL Geneticidin and 1% Penicillin/Streptomycin. Cells were grown to 80-90% confluency at 37° C. and 5% CO2.
On the day of the experiment the cells were detached by TrypLE and resuspended in culture medium. Cells were centrifuged, media removed and the cells were resuspended in extracellular buffer containing (in mM): 130 Na-gluconate, 20 NaCl, 4 KCl, 1 MgCl2, 1.8 CaCl2, 10 HEPES and 5 glucose, pH 7.3 adjusted with NaOH, 310-320 mOsm
Patch-clamp recordings were performed using a manual patch-clamp system (Axon Multiclamp 700B, Digidata 1440, pCLAMP 10, Molecular Devices Corporation) with a fast perfusion system (RSC-160 Rapid solution Changer, BioLogic). Whole-cell recordings were carried out using an intracellular solution containing (in mM): 100 K-gluconate, 40 KCl, 10 HEPES, 1 EGTA, 1 MgCl2, pH 7.2 adjusted with KOH, 290-300 mOsm. Cell membrane potentials were held at −80 mV and current voltage-relationship was generated by voltage steps (50 ms duration) from −100 mV to +10 mV (in 10 mV increments) and then back to −100 mV for 50 ms, with inter-sweep interval of 3 s. The peak current amplitude of −10 mV was monitored until stable (<5% change) by using one step voltage protocol. One IV protocol was run as baseline, then compound perfusion was stared and peak current stability was monitored with single step protocol prior to the IV protocol. Single concentrations were measured per cell. Acceptable cells had seal resistance >500 MOhm, Access resistance <10 MOhm, and leak current <200 pA.
Data analysis was performed using Clampfit (V10.2) in combination with Microsoft Excel™ (Redmond, Wash., USA). Current voltage relationships were plotted from the peak current (baseline subtracted) at the individual voltage steps normalized to the vehicle addition at 10 mV. The voltage threshold for channel activation was defined as 5% activation of the peak current at 10 mV in presence of vehicle. […] The concentration needed to shift the threshold 5 mV was readout from this curve (ECΔ5 mV), as well as the ability to increase the peak current at the −10 mV step (EC30% increase). […]

At hNav1.1, `Cc1cnc(CNC(=O)c2ccn(S(=O)(=O)c3ccc(F)cc3C)c2)cn1` [Compound 90, 1-(4-fluoro-2-methylbenzene-1-sulfonyl)-N-[(5-methylpyrazin-2-yl)methyl]-1H-pyrrole-3-carboxamide] yielded a concentration giving a half-maximal response (EC50) greater than 30 µM and an IC50 greater than 30 µM. At human Kv3.3, the “hKv3.3 ECΔ30% increase” value came out at 2.7 µM and the “hKv3.3 ECΔ5 mV” value worked out at 2.7 µM.

For `Cc1ccc(S(=O)(=O)n2ccc(C(=O)NCc3ncco3)c2)cc1` [Compound 86, 1-(4-methylbenzene-1-sulfonyl)-N-[(1,3-oxazol-2-yl)methyl]-1H-pyrrole-3-carboxamide], on hNav1.1, the EC50 is greater than 30 µM and the concentration for half-maximal inhibition (IC50) was greater than 30 µM. Further, at human Kv3.3, the “hKv3.3 ECΔ30% increase” value was greater than 30 µM and the “hKv3.3 ECΔ5 mV” value amounted to 4.9 µM.
